Data published in patent publication US11013235B2 (priority 2015, dated 2021).
Where two headings read alike, the source gives them in different places.

Key:
Format in all cases: in vivo
Phytophthora parasitica = test: Control of Phytophthora parasitica disease in tobacco (Pp-Nt); conditions: 1 μM spraying every 24 hours for one week, water control 91
Protocol: (§1) In order to compare the effect of the compounds of formula I to V on the control of diseases in different plants, experiments were conducted in tobacco, tomato and Arabidopsis thaliana plants inoculated with Phytophthora parasitica, Rhizoctonia solani, Alternaria solani, Nocardia sp and Botrytis cinerea, respectively. The compounds were applied by spraying, at a concentration of 1 μM, every 24 hours for one week. The plant mortality rate was determined for the disease produced by Phytophthora parasitica, Rhizoctonia solani and Nocardia sp, while the percentage of leaves with symptoms was determined for the infection by Alternaria solani. In the case of plants affected by Botrytis cinerea, the lesion diameter was measured. […] Each treatment included fifty plants. As control, plants treated with water were studied. The plants of each treatment were previously inoculated with the indicated pathogens, according to different inoculation protocols (Frontiers in Plant Science 3: 268, 1-6, 2012), and later they were treated with the compounds.

Radopholus similis = test: Nematode control, nodules per plant: Radopholus similis; conditions: 1 μM foliar application every 5 days, evaluation 35 days after, control 45
Protocol: (§2) The solutions of the compounds were prepared in ethanol and diluted in water, up to a concentration of 1 μM for a foliar application. Applications were conducted every 5 days, spraying only the leafs with each compound. Ten plants were used for each treatment and the final evaluation was performed 35 days after, by quantifying the number of nodules per plant.

Botrytis cinerea [1] = test: Control of Botrytis cinerea disease in Arabidopsis (Bc-At); conditions: 1 μM spraying every 24 hours for one week, water control 8.7
Protocol: as §1

Botrytis cinerea [2] = test: Control of Botrytis cinerea disease in tomato (Bc-SI); conditions: 1 μM spraying every 24 hours for one week, water control 7.4
Protocol: as §1

Rhizoctonia solani [3] = test: Control of Rhizoctonia solani disease in tomato (Rs-SI); conditions: 1 μM spraying every 24 hours for one week, water control 96
Protocol: as §1

[4] = system: Candidatus 'Liberibacter asiaticus'; conditions: spraying every 15 days, 12 months after treatment, Citrus sinensis with HLB
Meloidogyne incognita = test: Nematode control, nodules per plant: Meloidogyne incognita; conditions: 1 μM foliar application every 5 days, evaluation 35 days after, control 34
Protocol: as §2

Alternaria solani = test: Control of Alternaria solani disease in tomato (As-SI); conditions: 1 μM spraying every 24 hours for one week, water control 68
Protocol: as §1

Botrytis cinerea [5] = test: Control of Botrytis cinerea disease in tobacco (Bc-Nt); conditions: 1 μM spraying every 24 hours for one week, water control 6.7
Protocol: as §1

Pratylenchus coffeae = test: Nematode control, nodules per plant: Pratylenchus coffeae; conditions: 1 μM foliar application every 5 days, evaluation 35 days after, control 42
Protocol: as §2

Rhizoctonia solani [6] = test: Control of Rhizoctonia solani disease in tobacco (Rs-Nt); conditions: 1 μM spraying every 24 hours for one week, water control 87
Protocol: as §1

Nocardia sp = test: Control of Nocardia sp disease in tobacco (N-Nt); conditions: 1 μM spraying every 24 hours for one week, water control 58
Protocol: as §1

Row | SMILES | Pp-Nt: percentage of mortality (Phytophthora parasitica) [%] | Rs: number of nodules per plant (Radopholus similis) | Bc-At: mean of the diameter of the lesion (Botrytis cinerea [1]) [mm] | Bc-SI: mean of the diameter of the lesion (Botrytis cinerea [2]) [mm] | Rs-SI: percentage of mortality (Rhizoctonia solani [3]) [%] | Titers of the bacterium ([4]; 0.001 μM) [copies per reaction] | Titers of the bacterium ([4]; 0.01 μM) [copies per reaction] | Titers of the bacterium ([4]; 1 μM) [copies per reaction] | Titers of the bacterium ([4]; 5 μM) [copies per reaction] | Titers of the bacterium ([4]; 10 μM) [copies per reaction] | Mi: number of nodules per plant (Meloidogyne incognita) | As-SI: percentage of leaves with the disease symptoms (Alternaria solani) [%] | Bc-Nt: mean of the diameter of the lesion (Botrytis cinerea [5]) [mm] | Pc: number of nodules per plant (Pratylenchus coffeae) | Rs-Nt: percentage of mortality (Rhizoctonia solani [6]) [%] | N-Nt: percentage of mortality (Nocardia sp) [%]
1 | Cc1coc2cc3oc(=O)c(CCC(=O)NCC(O)CO)cc3cc12 (stereo not shown) [IA, N-(2,3-dihydroxypropyl)-3-{6-methyl-2-oxo-2H-furo[3,2-g]chromen-3-yl}propanamide] | 1 | 12 | 1.2 | 0.8 | 3 | 524 | 12 | 0 | 52 | 9652 | 23 | 1 | 0.3 | 18 | 2 | 1
2 | O=C(CCc1cc2cc3c(C4CCCCC4)coc3cc2oc1=O)NCC(O)CO (stereo not shown) [IC, 3-{6-cyclohexyl-2-oxo-2H-furo[3,2-g]chromen-3-yl}-N-(2,3-dihydroxypropyl)propanamide] | 1 | 13 | 0.5 | 0.8 | 2 | 432 | 9 | 0 | 43 | 9632 | 4 | 3 | 0.9 | 22 | 4 | 2
3 | O=C(CCc1cc2cc3c(C4CCCC4)coc3cc2oc1=O)NCC(O)CO (stereo not shown) [ID, 3-{6-cyclopentyl-2-oxo-2H-furo[3,2-g]chromen-3-yl}-N-(2,3-dihydroxypropyl)propanamide] | 0 | 0 | 1.5 | 2.5 | 2 | 123 | 0 | 0 | 123 | 5489 | 0 | 8 | 1.5 | 11 | 0 | 1
4 | O=C(CCc1cc2cc3c(-c4ccc5ccccc5c4)coc3cc2oc1=O)NCC(O)CO (stereo not shown) [IE, N-(2,3-dihydroxypropyl)-3-[6-(naphthalen-2-yl)-2-oxo-2H-furo[3,2-g]chromen-3-yl]propanamide] | 0 | 0 | 2.4 | 0.8 | 0 | 587 | 0 | 0 | 87 | 6574 | 0 | 7 | 1.5 | 0 | 0 | 0
